Molecules are shown by their SMILES.

The text below walks through data of US20250345277A1, “Ionizable Liposome, Preparation Thereof, and Application Thereof in Gene Delivery” (MAXIRNA (ZHEJIANG) TECHNOLOGY CO. LTD., priority 2021, published 2025).

Series [1] can be described thus: Size and polydispersity index PDI of lipid nanoparticles (Malvern Zetasizer Nano ZS). The class given is physicochemical. The note with it: LNP ionizable lipid/DOPE/cholesterol/DSPE-PEG2000 35/16/46.5/2.5 mol% encapsulating EGFP mRNA; for Particle Size: in nm (unit assumed). Put shortly: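 LNPs of ionizable lipid/DOPE/cholesterol/DSPE-PEG2000 (35/16/46.5/2.5 mol %) encapsulating EGFP mRNA, made by microfluidic mixing (ethanol lipid:citrate pH 6.1 aqueous 1:3 by volume; lipid:mRNA ~10:1 w/w). Buffer-exchanged into DPBS, 0.2 μm filtered. Size and PDI by dynamic light scattering at […] backscatter angle.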

Series [2] relates to PBMC cells. Kind of series: In vitro transfection of PBMC cells with EGFP mRNA LNP preparation (flow cytometry). The note with it: PBMCs; for Cell Viability / Positive Rate (EGFP): LNP preparation added with ApoE4; for Fluorescence Intensity: with ApoE4, EGFP mRNA expression level normalized based on the sample with the highest fluorescence intensity. On the set-up: Cell Viability: concentration or dose not given beside the values. The class given is cell-based. From the text:
The description is based on peripheral blood mononuclear cells PBMC (Shanghai Oribiotech Co., Ltd.), human peripheral blood leukemia T cell Jurkat (ATCC), tumor infiltrating lymphocyte TIL (isolated from resected tumor tissue of a liver cancer patient, the preparation method refers to CN114763530A), mouse bone marrow-derived dendritic cells DC2.4 (Cell Bank of the Chinese Academy of Sciences), and Chinese hamster ovary cells CHO (ATCC) were used as verified cell lines for liposome transfection. PBMC, Jurkat, and TIL cells grew in suspension, while DC2.4 and CHO cells grew by adherent culture. All the operation steps of cell culture must strictly abide by the prescribed procedures, and sterile reagents is used to perform aseptic operations under a sterile workbench. The main steps are as follows: • 1) Cell recovery: the preserved cell cryopreservation solution was taken out of the −80° C. refrigerator, and was immediately put in a 37° C. water bath for rapid and continuous shaking, and was completely melted within one minute. Fresh medium was added to the 15 mL centrifuge tube in advance, and the cell solution was added to the centrifuge tube in a biological safety cabinet. A centrifuge tube of the same quality was taken and placed symmetrically in a centrifuge, centrifuged at a low speed at 1200 rpm for 5 min. After centrifugation, the supernatant was removed, and an appropriate amount of medium was slowly added along the tube wall. After the cells were evenly dispersed by blowing gently, the cell suspension was pipette and added to the culture bottle prepared in advance. The state and distribution of the cells in the early stage of recovery were observed under a microscope. The culture bottle was placed in a 5% CO2 incubator and incubated at 37° C., and the recovery time was recorded. • 2) Cell subculture: Under the microscope, if the cell density in the field of view reaches 80%-90%, the cells can be subcultured. Adherent cells need to be digested with trypsin. In order to avoid the residual serum in the culture medium to reduce the activity of trypsin, DPBS solution was added to wash once after removing the original culture medium. After remove the DPBS solution, trypsin was added to degrade the protein at the junction between cells. This separates the cells for further culture. The cells were gently shaked evenly and put into the incubator for digestion for 2 min. Immediately after the digestion was completed, an appropriate amount of medium was added to the original petri dish to terminate the digestion. Finally, the cells were carefully blowed off using a pipette and blowed until they are evenly dispersed, and then inoculated and subcultured at a certain ratio according to the experimental requirements.
• 1) Coating antibodies: 6-well plates were pre-coated, CD3 and CD28 antibodies were taken out from the −20° C. refrigerator, and melted for later use. The above two antibodies were added into the DPBS solution at a concentration of 5 µg/mL, mixed well, added into a six-well plate at 1 mL/well, put in a 37° C. incubator, and waited 4 hours for later use. • 2) PBMC recovery: the frozen PBMC cells were taken out from the −80° C. refrigerator, put in a 37° C. water bath to quickly thaw the cells, added to the preheated medium after thawing, centrifuged at 1200 rpm for 5 min, the supernatant was discarded, and an appropriate amount of AIMN-V medium with 500 U/ml IL-2 was added to resuspend PBMC. • 3) the DPBS coated with the antibody was removed with a pipette, the cell suspension was transferred to a six-well plate pre-coated with the antibody at 4 mL per well, placed in a 5% CO2 incubator at 37° C. for 3-5 days for activation and culture. • 4) According to the experimental arrangement, PBMC cells were plated on a 24-well plate 30 minutes in advance on the day of cell transfection. […]
(Flow cytometry measures light scatter and fluorescence of single cells or particles in a stream.)

The nature of series [3]: Entrapment efficiency of LNP preparation encapsulating EGFP mRNA. In kind it is physicochemical. The conditions noted are these: LNP ionizable lipid/DOPE/cholesterol/DSPE-PEG2000 35/16/46.5/2.5 mol% encapsulating EGFP mRNA. Put shortly: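 LNPs of ionizable lipid/DOPE/cholesterol/DSPE-PEG2000 (35/16/46.5/2.5 mol %) made by microfluidic mixing of ethanol lipids with EGFP mRNA in 20 mM citrate pH 6.1 (1:3 by volume), lipid:mRNA about 10:1 by weight. Buffer exchanged to DPBS by ultrafiltration, then 0.2 μm filtered; mRNA 0.002–0.5 mg/mL.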

With `CCCCCCCCCCC(O)CN(CCOCCOCCOCCN(CCOCCOCCOCCN(CC(O)CCCCCCCCCC)CC(O)CCCCCCCCCC)CCN1CCN(CCOCCOCCOCCN(CC(O)CCCCCCCCCC)CC(O)CCCCCCCCCC)CC1)CC(O)CCCCCCCCCC` [D-C12], in series [1], the PDI is 0.073 and the “Particle Size” value was 90.5. Besides, in series [2], the “Cell Viability” value was 85.60%, the “Positive Rate (EGFP)” value was 65.60% and the “Fluorescence Intensity” value stood at 0.27. Moreover, the “Entrapment Efficiency” value in series [3] came to 91.80%.
Turning to `CCCCCCCCCCCCC(O)CN(CCOCCOCCOCCN(CCOCCOCCOCCN(CC(O)CCCCCCCCCCCC)CC(O)CCCCCCCCCCCC)CCN1CCN(CCOCCOCCOCCN(CC(O)CCCCCCCCCCCC)CC(O)CCCCCCCCCCCC)CC1)CC(O)CCCCCCCCCCCC` [D-C14], in series [1], the PDI was 0.168 and the “Particle Size” value turned out to be 97.2. Moreover, in series [2], the “Cell Viability” value is on record as 88.70%, the “Positive Rate (EGFP)” value was 96.70% and the “Fluorescence Intensity” value amounted to 0.25. The “Entrapment Efficiency” value in series [3] is 92.36%.
Consider `CCCCCCCCCCCCCCC(O)CN(CCOCCOCCOCCN(CCOCCOCCOCCN(CC(O)CCCCCCCCCCCCCC)CC(O)CCCCCCCCCCCCCC)CCN1CCN(CCOCCOCCOCCN(CC(O)CCCCCCCCCCCCCC)CC(O)CCCCCCCCCCCCCC)CC1)CC(O)CCCCCCCCCCCCCC` [D-C16], for which, in series [1], the PDI is given as 0.117 and the “Particle Size” value is reported as 91.6. In addition, in series [2], the “Cell Viability” value is 82.20%, the “Positive Rate (EGFP)” value came to 71.70% and the “Fluorescence Intensity” value is 0.32. Also, in series [3], the “Entrapment Efficiency” value is 86.56%.
For `CCCCCCCCCCCCCCCCC(O)CC(CCOCCOCCOCCN(CCOCCOCCOCCN(CC(O)CCCCCCCCCCCCCCCC)CC(O)CCCCCCCCCCCCCCCC)CCN1CCN(CCOCCOCCOCCN(CC(O)CCCCCCCCCCCCCCCC)CC(O)CCCCCCCCCCCCCCCC)CC1)CC(O)CCCCCCCCCCCCCCCC` [D-C18], in series [1], the PDI was found to be 0.105 and the “Particle Size” value is 103.0. Further, in series [2], the “Cell Viability” value is given as 83.30%, the “Positive Rate (EGFP)” value is 64.40% and the “Fluorescence Intensity” value worked out at 0.41. Further, the “Entrapment Efficiency” value in series [3] was found to be 88.54%.
For the molecule `CCCCCCCCCCCCC(O)CN(CCN(CCN1CCN(C)CC1)CCN(CC(O)CCCCCCCCCCCC)CC(O)CCCCCCCCCCCC)CC(O)CCCCCCCCCCCC` (stereo not drawn) [E-C14], in series [1], the PDI came out at 0.119 and the “Particle Size” value is reported as 85.2. For the same molecule, in series [2], the “Cell Viability” value came out at 86.50%, the “Positive Rate (EGFP)” value is 64.60% and the “Fluorescence Intensity” value was found to be 0.12. In series [3], the “Entrapment Efficiency” value is 85.62%.
`CCCCCCCCCCCCC(O)CN(CCOCCN(CCOCCN(CC(O)CCCCCCCCCCCC)CC(O)CCCCCCCCCCCC)CCN1CCN(C)CC1)CC(O)CCCCCCCCCCCC` (stereo not drawn) [F-C14]: in series [1], the PDI is on record as 0.131 and the “Particle Size” value came to 82.4. For the same molecule, in series [2], the “Cell Viability” value is listed as 83.20%, the “Positive Rate (EGFP)” value stood at 63.70% and the “Fluorescence Intensity” value was determined as 0.16. For the same molecule, the “Entrapment Efficiency” value in series [3] came to 95.21%.
In the case of `CCCCCCCCCCCCC(O)CN(CCOCCOCCN(CCOCCOCCN(CC(O)CCCCCCCCCCCC)CC(O)CCCCCCCCCCCC)CCN1CCN(C)CC1)CC(O)CCCCCCCCCCCC` (stereo not drawn) [G-C14], in series [1], the PDI was 0.180 and the “Particle Size” value is recorded as 86.4. In addition, in series [2], the “Cell Viability” value worked out at 79.40%, the “Positive Rate (EGFP)” value was 63.40% and the “Fluorescence Intensity” value amounted to 0.1. Moreover, the “Entrapment Efficiency” value in series [3] was determined as 84.02%.
In the case of `CCCCCCCCCCCCC(O)CN(CCOCCOCCOCCN(CCOCCOCCOCCN(CC(O)CCCCCCCCCCCC)CC(O)CCCCCCCCCCCC)CCN1CCN(C)CC1)CC(O)CCCCCCCCCCCC` (stereo not drawn) [H-C14], in series [1], the PDI amounted to 0.099 and the “Particle Size” value is recorded as 94.8. In series [2], the “Cell Viability” value is reported as 81.70%, the “Positive Rate (EGFP)” value is listed as 62.10% and the “Fluorescence Intensity” value came to 0.07. Also, the “Entrapment Efficiency” value in series [3] worked out at 91.67%.
